# Measurements as given in PubChem BioAssay (NCI).
#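 Cultured in 96-well plates, cells were exposed to test compound for 48 hours across five concentrations. Here, GI50 denotes the concentration required for 50% inhibition of growth. TGI: total growth inhibition.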
# Assays:
# Assay in all cases: NCI tumour cell line growth inhibition, 48 h
# SNB-19 CNS = test system: SNB-19 CNS
# A498 renal = test system: A498 renal
# HOP-62 NSCLC = test system: HOP-62 NSCLC
# CAKI-1 renal = test system: CAKI-1 renal
# U251 CNS = test system: U251 CNS
# UACC-62 melanoma = test system: UACC-62 melanoma
# MOLT-4 leukemia = test system: MOLT-4 leukemia
# TK-10 renal = test system: TK-10 renal
# SK-MEL-2 melanoma = test system: SK-MEL-2 melanoma
# EKVX NSCLC = test system: EKVX NSCLC
# PC-3 prostate = test system: PC-3 prostate
# NCI/ADR-RES ovarian = test system: NCI/ADR-RES ovarian
# SK-OV-3 ovarian = test system: SK-OV-3 ovarian
# 786-0 renal = test system: 786-0 renal
# OVCAR-3 ovarian = test system: OVCAR-3 ovarian
# SR leukemia = test system: SR leukemia
# HCT-15 colon = test system: HCT-15 colon
# KM12 colon = test system: KM12 colon
# RXF 393 renal = test system: RXF 393 renal
# OVCAR-8 ovarian = test system: OVCAR-8 ovarian
# MDA-MB-231 breast = test system: MDA-MB-231 breast
# CCRF-CEM leukemia = test system: CCRF-CEM leukemia
# M14 melanoma = test system: M14 melanoma
# MDA-MB-435 = test system: MDA-MB-435
# SF-295 CNS = test system: SF-295 CNS
# MCF7 breast = test system: MCF7 breast
# HCT-116 colon = test system: HCT-116 colon
# UO-31 renal = test system: UO-31 renal
# NCI-H460 lung = test system: NCI-H460 lung
# HCC-2998 colon = test system: HCC-2998 colon
# OVCAR-4 ovarian = test system: OVCAR-4 ovarian
# SK-MEL-28 melanoma = test system: SK-MEL-28 melanoma
# ACHN renal = test system: ACHN renal
# RPMI-8226 leukemia = test system: RPMI-8226 leukemia
# UACC-257 melanoma = test system: UACC-257 melanoma
# SW-620 colon = test system: SW-620 colon
# OVCAR-5 ovarian = test system: OVCAR-5 ovarian
# BT-549 breast = test system: BT-549 breast
# SF-268 CNS = test system: SF-268 CNS
# HL-60(TB) leukemia = test system: HL-60(TB) leukemia
# A549 NSCLC = test system: A549 NSCLC
# HS 578T breast = test system: HS 578T breast
# DU-145 prostate = test system: DU-145 prostate
# NCI-H23 lung = test system: NCI-H23 lung
# HT29 colon = test system: HT29 colon
# MALME-3M melanoma = test system: MALME-3M melanoma
# HOP-92 NSCLC = test system: HOP-92 NSCLC
# T-47D breast = test system: T-47D breast
smiles,measurement,setting,value
CCN(CC)CCCC(C)Nc1cc(-c2ccc(C(F)(F)F)cc2)c(C#N)c2nc3ccccc3n12 (stereo unspecified),GI50,SNB-19 CNS,2960 nM
same,TGI,SNB-19 CNS,11.1 µM
same,GI50,A498 renal,1470 nM
same,TGI,A498 renal,2900 nM
same,GI50,HOP-62 NSCLC,2200 nM
same,TGI,HOP-62 NSCLC,7.18 µM
same,GI50,CAKI-1 renal,2890 nM
same,TGI,CAKI-1 renal,12.5 µM
same,GI50,U251 CNS,2040 nM
same,TGI,U251 CNS,4.16 µM
same,GI50,UACC-62 melanoma,1720 nM
same,TGI,UACC-62 melanoma,3.38 µM
same,GI50,MOLT-4 leukemia,3.19 µM
same,TGI,MOLT-4 leukemia,12.1 µM
same,GI50,TK-10 renal,2490 nM
same,TGI,TK-10 renal,5.29 µM
same,GI50,SK-MEL-2 melanoma,2270 nM
same,TGI,SK-MEL-2 melanoma,4.15 µM
same,GI50,EKVX NSCLC,2290 nM
same,TGI,EKVX NSCLC,5.82 µM
same,GI50,PC-3 prostate,2060 nM
same,TGI,PC-3 prostate,4.26 µM
same,GI50,NCI/ADR-RES ovarian,1980 nM
same,TGI,NCI/ADR-RES ovarian,4.44 µM
same,GI50,SK-OV-3 ovarian,2220 nM
same,TGI,SK-OV-3 ovarian,4.75 µM
same,GI50,786-0 renal,1510 nM
same,TGI,786-0 renal,2930 nM
same,GI50,OVCAR-3 ovarian,1840 nM
same,TGI,OVCAR-3 ovarian,3.68 µM
same,GI50,SR leukemia,2160 nM
same,TGI,SR leukemia,5.91 µM
same,GI50,HCT-15 colon,1880 nM
same,TGI,HCT-15 colon,4.03 µM
same,GI50,KM12 colon,3.29 µM
same,TGI,KM12 colon,12.6 µM
same,GI50,RXF 393 renal,1400 nM
same,TGI,RXF 393 renal,2960 nM
same,GI50,OVCAR-8 ovarian,2410 nM
same,TGI,OVCAR-8 ovarian,5.51 µM
same,GI50,MDA-MB-231 breast,1580 nM
same,TGI,MDA-MB-231 breast,3.42 µM
same,GI50,CCRF-CEM leukemia,846 nM
same,TGI,CCRF-CEM leukemia,> 100 µM
same,GI50,M14 melanoma,1810 nM
same,TGI,M14 melanoma,3.37 µM
same,GI50,MDA-MB-435,1670 nM
same,TGI,MDA-MB-435,3.14 µM
same,GI50,SF-295 CNS,1890 nM
same,TGI,SF-295 CNS,3.57 µM
same,GI50,MCF7 breast,2100 nM
same,TGI,MCF7 breast,4.88 µM
same,GI50,HCT-116 colon,687 nM
same,TGI,HCT-116 colon,2060 nM
same,GI50,UO-31 renal,1410 nM
same,TGI,UO-31 renal,2870 nM
same,GI50,NCI-H460 lung,1820 nM
same,TGI,NCI-H460 lung,3.61 µM
same,GI50,HCC-2998 colon,1910 nM
same,TGI,HCC-2998 colon,3.67 µM
same,GI50,OVCAR-4 ovarian,3.12 µM
same,TGI,OVCAR-4 ovarian,10.1 µM
same,GI50,SK-MEL-28 melanoma,325 nM
same,TGI,SK-MEL-28 melanoma,1190 nM
same,GI50,ACHN renal,1380 nM
same,TGI,ACHN renal,2870 nM
same,GI50,RPMI-8226 leukemia,1960 nM
same,TGI,RPMI-8226 leukemia,5.22 µM
same,GI50,UACC-257 melanoma,2080 nM
same,TGI,UACC-257 melanoma,3.75 µM
same,GI50,SW-620 colon,1920 nM
same,TGI,SW-620 colon,3.99 µM
same,GI50,OVCAR-5 ovarian,2290 nM
same,TGI,OVCAR-5 ovarian,5.15 µM
same,GI50,BT-549 breast,1600 nM
same,TGI,BT-549 breast,3.16 µM
same,GI50,SF-268 CNS,1900 nM
same,TGI,SF-268 CNS,4.43 µM
same,GI50,HL-60(TB) leukemia,2100 nM
same,TGI,HL-60(TB) leukemia,4.98 µM
same,GI50,A549 NSCLC,3.44 µM
same,TGI,A549 NSCLC,10.9 µM
same,GI50,HS 578T breast,1820 nM
same,TGI,HS 578T breast,4.86 µM
same,GI50,DU-145 prostate,3.55 µM
same,TGI,DU-145 prostate,11.4 µM
same,GI50,NCI-H23 lung,1860 nM
same,TGI,NCI-H23 lung,4.22 µM
same,GI50,HT29 colon,2380 nM
same,TGI,HT29 colon,5.58 µM
same,GI50,MALME-3M melanoma,1830 nM
same,TGI,MALME-3M melanoma,3.54 µM
same,GI50,HOP-92 NSCLC,1660 nM
same,TGI,HOP-92 NSCLC,3.43 µM
same,GI50,T-47D breast,2230 nM
same,TGI,T-47D breast,5.45 µM
